Data published in ChEMBL document CHEMBL1153765, “Bioactive 5,6-dihydro-alpha-pyrone derivatives from Hyptis brevipes” (2009).
Activity calls are given as the source filed them. No cut-off for these calls is given here.

Columns and labels:
MCF7 = assay: Cytotoxicity against human MCF7 cells; format: functional; details: read-out: ED50 (the source's name)
[1] = biological target: T1, Nuclear factor NF-kappa-B p105 subunit (Homo sapiens) (UniProt P19838); assay: Inhibition of NF kappaB p50 subunit signaling pathway in human HeLa cells by biotinylated-ELISA; format: cell-based
T1 sequence (whole entry): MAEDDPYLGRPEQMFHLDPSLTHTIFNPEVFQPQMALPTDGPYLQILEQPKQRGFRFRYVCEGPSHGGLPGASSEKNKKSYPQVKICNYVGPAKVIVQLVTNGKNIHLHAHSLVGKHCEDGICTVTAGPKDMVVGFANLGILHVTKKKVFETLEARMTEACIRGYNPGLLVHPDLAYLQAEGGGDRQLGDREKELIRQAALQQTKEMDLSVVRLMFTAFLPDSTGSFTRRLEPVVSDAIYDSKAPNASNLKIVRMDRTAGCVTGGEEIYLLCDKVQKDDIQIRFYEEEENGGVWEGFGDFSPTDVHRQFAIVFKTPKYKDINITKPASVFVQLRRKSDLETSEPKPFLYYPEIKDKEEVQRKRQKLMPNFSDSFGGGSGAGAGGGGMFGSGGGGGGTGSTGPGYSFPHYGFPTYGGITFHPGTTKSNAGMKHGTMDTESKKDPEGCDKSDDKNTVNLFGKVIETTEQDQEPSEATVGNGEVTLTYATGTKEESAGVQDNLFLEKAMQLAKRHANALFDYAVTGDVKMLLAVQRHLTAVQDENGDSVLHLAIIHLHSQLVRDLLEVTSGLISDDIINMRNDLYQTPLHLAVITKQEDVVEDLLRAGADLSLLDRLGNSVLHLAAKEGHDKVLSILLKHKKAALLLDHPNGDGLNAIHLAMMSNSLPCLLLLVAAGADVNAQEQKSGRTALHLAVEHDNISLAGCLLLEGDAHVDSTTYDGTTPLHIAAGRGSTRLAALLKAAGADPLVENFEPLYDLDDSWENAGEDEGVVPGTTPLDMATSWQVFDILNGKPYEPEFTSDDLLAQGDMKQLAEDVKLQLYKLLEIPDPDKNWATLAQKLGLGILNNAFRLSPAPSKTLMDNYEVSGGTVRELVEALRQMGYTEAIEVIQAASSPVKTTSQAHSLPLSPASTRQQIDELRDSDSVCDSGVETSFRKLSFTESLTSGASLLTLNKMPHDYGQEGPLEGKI

HT-29 [2] = assay: Induction of apoptosis in human HT-29 cells assessed as change in mitochondrial transmembrane potential after 2 hrs by JC1 staining based fluorescence assay; format: functional; details: HT-29, 2 h, read-out: ED50 (the source's name)
Lu1 = assay: Cytotoxicity against human Lu1 cells; format: functional, cell-based
HL-60 = assay: Inhibition of chymotrypsin-like activity of proteasome in human HL60 cells assessed as free AMC level after 10 mins; format: subcellular
HT-29 [3] = assay: Cytotoxicity against human HT-29 cells; format: functional; details: read-out: ED50 (the source's name)

Structure (SMILES) | ED50 [1] | EC50 (HT-29 [2]) | ED50 (HL-60) | EC50 (MCF7) | Activity (Lu1) | EC50 (HT-29 [3])
CC(OC(=O)/C=C/c1ccc(O)cc1)C(=O)[C@H]1C[C@@H]1[C@H](O)[C@H]1CC=CC(=O)O1 (stereo not given in full) | 15.3 µM | 0.075 µM |  | 3.6 µM | inactive | 
COc1ccc(-c2oc3cc(OC)c(O)c(O)c3c(=O)c2OC)cc1O | > 50 µM |  | 17 µM |  | inactive | 
COc1ccc([C@@]23Oc4cc(OC)cc(OC)c4[C@]2(O)[C@H](O)[C@H](C(=O)N(C)C)[C@H]3c2ccccc2)cc1 | 2 µM |  |  |  |  | 
CC(=O)O[C@@H]([C@H]1C[C@@H]1C(=O)C(C)OC(=O)/C=C/c1ccc(O)cc1)[C@H]1CC=CC(=O)O1 (stereo not given in full) [BREVIPOLIDE A] | > 50 µM |  |  | > 10 µM | inactive | 5.8 µM
CC(=O)O[C@@H]([C@H]1C[C@@H]1C(=O)C(C)OC(=O)/C=C\c1ccc(O)cc1)[C@H]1CC=CC(=O)O1 (stereo not given in full) [BREVIPOLIDE B] | > 50 µM |  |  | 6.1 µM | inactive | 6.1 µM

Continued, in another order:

ED50 [1] | EC50 (HT-29 [2]) | ED50 (HL-60) | Structure (SMILES) | EC50 (MCF7) | Activity (Lu1) | EC50 (HT-29 [3])
> 50 µM |  | 38 µM | CC(OC(=O)/C=C/c1ccc(O)c(O)c1)C(=O)[C@H]1C[C@@H]1[C@H](O)[C@H]1CC=CC(=O)O1 (stereo not given in full) [BREVIPOLIDE C] | > 10 µM | inactive | 
> 50 µM |  | 44.5 µM | CC(OC(=O)/C=C\c1ccc(O)c(O)c1)C(=O)[C@H]1C[C@@H]1[C@H](O)[C@H]1CC=CC(=O)O1 (stereo not given in full) [BREVIPOLIDE D] | > 10 µM | inactive | 
> 50 µM |  |  | CC(=O)O[C@@H]([C@H]1C[C@@H]1C(=O)C(C)OC(=O)/C=C/c1ccc(O)c(O)c1)[C@H]1CC=CC(=O)O1 (stereo not given in full) [BREVIPOLIDE E] | > 10 µM | inactive | 
> 50 µM |  |  | CC(OC(=O)/C=C\c1ccc(O)cc1)C(=O)[C@H]1C[C@@H]1[C@H](O)[C@H]1CC=CC(=O)O1 (stereo not given in full) [BREVIPOLIDE F] | 6.7 µM | inactive | 
